# Source: patent US20200360391A1, “Medicinal Composition for Treating Intractable Heart Disease” (Osaka University, priority 2016, published 2020)
# Like-named read-outs stand apart in the source and are kept apart here.
# Assays:
# rats [1] = settings: rat, in vivo, sc; cited from earlier work
# rats [2] = assay: Repeated oral administration toxicity study in rats (dose-setting basis); settings: mg/kg twice per day, oral preparation
# Description: The dose-setting basis for the doses of the test substances used in pharmacological tests is as described below.
# [3] = tested on: spontaneous dilated cardiomyopathy (J2N-k) hamster model; assay: Spontaneous dilated cardiomyopathy (J2N-k) hamster model, 8-week administration from 20 weeks of age (Tests 1-3): echocardiography, body weight; settings: for Minimal effective dose (screening 2): mg/kg twice per day, oral preparation
# Experimental: The doses of pharmaceutical products were determined based on the no-observed-adverse-effect levels in a long-term toxicity study using rats. δ-Glycan-deficient spontaneous dilated cardiomyopathy (J2N-k) male hamsters (Japan SLC, Inc.) were delivered at 18 weeks of age. After a 2-week quarantine/acclimation, echocardiography was performed.
# Each of the pharmaceutical products (A to K and O) was individually administered twice daily (at an interval of 8 hours or more) by oral gavage, and echocardiography was performed after 4 and 8 weeks (before dissection). Differences from the value before the start of administration (at the time of grouping) (amount of change: Δ) in each group were examined, and the cardiac function (EF value, FS %, etc.) was compared with that in the vehicle group (Group 1). Moreover, the heart was removed […] after the start of administration, and electron microscopy and RNA protein measurement were performed. Specimens for immunopathology were also collected and evaluated.
# Each pharmaceutical product was individually suspended in 0.5% CMC-Na (sodium carboxymethylcellulose; Wako Pure Chemical Industries, Ltd.) before use, and administered. […] To Group 1 (control), 0.5% CNC-Na (vehicle) was administered.
# Each pharmaceutical product was individually suspended in 0.5% CMC-Na (sodium carboxymethylcellulose; Wako Pure Chemical Industries, Ltd.) before use, and administered. Test substance G was suspended in distilled water before use, and administered.
# Reason the doses were set (assuming that the adult body weight was 60 kg, the same amounts as the maximum clinical doses were set) • 1) The clinical dose of C (ozagrel; OZ) was 200 mg twice per day. The dose was thus set to 3.3 mg/kg twice per day. • 2) The clinical dose of D (cilostazol; CS) was 100 mg twice per day. The dose was thus set to 1.7 mg/kg twice per day. • 3) The clinical dose of E (pirfenidone; PF) was 600 mg three times per day, i.e., 1800 mg/day in total. The dose was thus set to 15 mg/kg twice per day. • 4) The clinical dose of G (nintedanib sulfonate; OB) was 150 mg twice per day. The dose was thus set to 2.5 mg/kg twice per day. • 5) The clinical dose of P (carvedilol; CV) was 10 mg twice per day. The dose was thus set to 0.17 mg/kg twice per day. • 6) Preparation 2 (PLGA⋅MS preparation of camostat; B⋅MS): the clinical dose of active substance camostat was 200 mg three times per day, i.e., 600 mg/day in total; thus, intermittent subcutaneous administration at a daily dose of 10 mg/kg once every 4 weeks, twice in total was set. The dose was 1/28 of the total oral dose amount.
# The dose volume in oral administration was 5 mL/kg (the amount of liquid to be administered to each animal was calculated based on the most recent body weight), and administered by oral gavage using a polypropylene disposable syringe and a rat stomach tube.
# The administration period of each pharmaceutical product was 8 weeks.
# [4] = tested on: mice with ethionine-induced pancreatitis; settings: oral, twice daily; cited from earlier work
# [5] = tested on: rat coronary artery complete ischemia model; assay: Model of ischemia (MI) by rat coronary artery complete ligation (Tests 1 and 2): echocardiography, body weight; settings: for value of change in E.F. compared with E.F. on Day 1 / value of change in F.S. compared with F.S. on Day 1: B-MS 100, C-MS 50, F-MS 30 mg/kg s.c. single injection
# rats [6] = settings: rats, cited from earlier work
# [7] = cited from earlier work
# [8] = tested on: mouse model of pulmonary embolism; settings: oral pre-administration, cited from earlier work
# dogs = settings: 6-month toxicity study in dogs; cited from earlier work
# [9] = tested on: spontaneously hypertensive rats (SHR); settings: oral 0.1, 1 and 10 mg/kg for 2 weeks; cited from earlier work
# [10] = tested on: spontaneous dilated cardiomyopathy (J2N-k) hamster model; assay: Long-term (36 weeks) administration in J2N-k hamster model: cardiac function, survival rate; type: in vivo; settings: 3.0 mg/kg
# Experimental: ONO-1301 and (K) candesartan, which is ARB, were each individually orally administered to a δ-glycan-deficient spontaneous dilated cardiomyopathy (J2N-k) hamster model twice daily repeatedly for 36 weeks, after the onset of pathological condition (20 weeks old); and changes in cardiac function and survival rates in long-term administration were compared for evaluation. Specifically, echocardiographic measurement was performed after the onset of pathological condition (20 weeks old); the animals were grouped evenly based on the ejection fractions (EF values) and the body weights (Table 15), and each test substance was individually administered for 36 weeks.
# The test was performed in the same manner as described in the section “1. Investigation of effects in spontaneous dilated cardiomyopathy (J2N-k) hamster model” above.
# ONO-1301 was administered at 3 mg/kg twice per day. Candesartan was administered at 3 mg/kg once per day, and only vehicle was administered at the second administration. To the control group, vehicle (0.5% CMC-Na) was administered twice daily.
# [11] = MI Test 2, 14 Day, B 150, G 5, I 30, C 10 mg/kg p.o. b.i.d., mean ± S.D.
# [12] = MI Test 2, 29 Day, B 150, G 5, I 30, C 10 mg/kg p.o. b.i.d., mean ± S.D.
# [13] = Test 1, p.o. b.i.d., NOAEL-based dose
# [14] = MI Test 1, NOAEL doses, 7 Day, mean ± S.D.
# [15] = MI Test 1, NOAEL doses, 14 Day, mean ± S.D.
# [16] = MI Test 1, NOAEL doses, 29 Day, mean ± S.D.
compound,measurement,setting,value
"CN(C)C(=O)COC(=O)Cc1ccc(OC(=O)c2ccc(NC(=N)N)cc2)cc1 [Compound B, Camostat mesilate]",LD50,rats [1],1329 mg/kg
same,Maximum no-observed-adverse-effect level (screening 1),rats [2],150 mg/kg
same,LVIDd 4 W,"[3]; Test 1, p.o. b.i.d.",6.8 mm
same,LVIDd 8 W,"[3]; Test 1, p.o. b.i.d.",7.3 mm
same,LVIDs 4 W,"[3]; Test 1, p.o. b.i.d.",5.6 mm
same,LVIDs 8 W,"[3]; Test 1, p.o. b.i.d.",6.1 mm
same,LVIDs 8 W,"[3]; Test 1, p.o. b.i.d., listed as camostat",significantly lower
same,Body weight 1 W,"[3]; hamster, in vivo, po",114.4 g
same,Body weight 2 W,"[3]; hamster, in vivo, po",117.7 g
same,Body weight 3 W,"[3]; hamster, in vivo, po",119.0 g
same,Body weight 4 W,"[3]; hamster, in vivo, po",121.3 g
same,Body weight 5 W,"[3]; hamster, in vivo, po",121.9 g
same,Body weight 6 W,"[3]; hamster, in vivo, po",122.2 g
same,Minimal effective dose (screening 2),[3],5 mg/kg
same,Dose suppressing increase in protease activity in the pancreas,[4],300 mg/kg
same,EF actual measured value and/or amount of change compared with control,"[5]; MI Test 2, Day 14 and Day 29",significantly higher
same,"Values of cardiac function (EF, FS %) compared with control","[5]; MI Test 2, oral b.i.d. 4 weeks or single subcutaneous administration",significantly higher
same,Body weight,"[5]; MI Test 2, 1 Day, B 150, G 5, I 30, C 10 mg/kg p.o. b.i.d., B MS 100, C MS 50, I MS 30 mg/kg s.c. single injection, mean",243.5 g
same,Body weight,"[5]; MI Test 2, 7 Day, B 150, G 5, I 30, C 10 mg/kg p.o. b.i.d., B MS 100, C MS 50, I MS 30 mg/kg s.c. single injection, mean",249.1 g
same,Body weight,"[5]; MI Test 2, 14 Day, B 150, G 5, I 30, C 10 mg/kg p.o. b.i.d., B MS 100, C MS 50, I MS 30 mg/kg s.c. single injection, mean",262.4 g
same,value of change in E.F. compared with E.F. on Day 1,[5]; [11],<−4.2 ± 2.5> %
same,value of change in F.S. compared with F.S. on Day 1,[5]; [11],<−2.3 ± 5.3> %
same,Body weight,"[5]; MI Test 2, 21 Day, B 150, G 5, I 30, C 10 mg/kg p.o. b.i.d., B MS 100, C MS 50, I MS 30 mg/kg s.c. single injection, mean",273.9 g
same,Body weight,"[5]; MI Test 2, 29 Day, B 150, G 5, I 30, C 10 mg/kg p.o. b.i.d., B MS 100, C MS 50, I MS 30 mg/kg s.c. single injection, mean",293.5 g
same,value of change in E.F. compared with E.F. on Day 1,[5]; [12],<−7.3 ± 4.2> %
same,value of change in F.S. compared with F.S. on Day 1,[5]; [12],<−3.9 ± 2.2> %
"O=C1CCc2cc(OCCCCc3nnnn3C3CCCCC3)ccc2N1 [Compound D, Cilostazol]",No-observed-adverse-effect level,rats [6]; 13 weeks / 3 months,30 mg/kg
same,Maximum no-observed-adverse-effect level (screening 1),rats [2],30 mg/kg
same,LVIDd 4 W,"[3]; Test 1, p.o. b.i.d.",7.1 mm
same,LVIDd 8 W,"[3]; Test 1, p.o. b.i.d.",7.5 mm
same,LVIDs 4 W,"[3]; Test 1, p.o. b.i.d.",5.9 mm
same,LVIDs 8 W,"[3]; Test 1, p.o. b.i.d.",6.3 mm
same,Body weight 1 W,[3]; [13],112.6 g
same,Body weight 2 W,[3]; [13],114.6 g
same,Body weight 3 W,[3]; [13],116.6 g
same,Body weight 4 W,[3]; [13],118.0 g
same,Body weight 5 W,[3]; [13],118.5 g
same,"Cardiac function (EF, FS %) actual measured value and/or amount of change compared with control, 8 W value","[3]; Test 3, clinical dose",significant cardiac function improvement effect
same,"Cardiac function (EF, FS %) actual measured value or change rate compared with control, 4 W value","[3]; Test 3, clinical dose",significant cardiac function improvement effect
same,Cardiac function improvement effect,"[3]; Test 3, clinical dose, summary",cardiac function improvement effect was observed
same,Minimal effective dose (screening 2),[3],1.7 mg/kg
same,Diarrhea cases,"[7]; human, in vivo",0.3%
same,Dizziness,"[7]; human, in vivo",0.5%
same,Headache (headache/heavy-headedness) cases,"[7]; human, in vivo",3.4%
same,Nausea cases (cilostazol: nausea/vomiting),"[7]; human, in vivo",0.3%
same,Palpitations cases,"[7]; human, in vivo",0.7%
same,Cases with side effects (including laboratory test value abnormality),[7]; share of cases evaluated for safety,6.3%
same,Dose significantly inhibiting pulmonary embolus death,[8]; ADP-induced model,30 mg/kg
same,Dose significantly inhibiting pulmonary embolus death,[8]; collagen-induced model,10 mg/kg
same,Action on left ventricular systolic function,"[5]; MI Test 1, 28-day repeated oral administration b.i.d., NOAEL-based doses",suppression action on the deterioration of left ventricular systolic function
same,Cardiac function test (% FS): actual measured EF value compared with control,"[5]; MI Test 1, Day 7",significantly higher
same,Cardiac function test (% FS): amount of change in the EF value compared with control,"[5]; MI Test 1, Day 7",not significantly higher
same,EF actual measured value compared with control,"[5]; MI Test 1, Day 7",significantly higher
same,EF amount of change compared with control,"[5]; MI Test 1, Day 7",not significantly higher
same,Cardiac function test (% FS): amount of change compared with control,"[5]; MI Test 1, Day 29",significantly higher
same,Body weight,"[5]; MI Test 1, NOAEL doses, 1 Day (grouping), mean ± S.D.",232.4 ± 4.9 g
same,% FS: value of change compared with the value on Day 1,[5]; [14],-1%
same,EF: value of change compared with the value on Day 1,[5]; [14],-1%
same,% FS: value of change compared with the value on Day 1,[5]; [15],-2%
same,EF: value of change compared with the value on Day 1,[5]; [15],-3%
same,% FS: value of change compared with the value on Day 1,[5]; [16],-5%
same,EF: value of change compared with the value on Day 1,[5]; [16],-9%
"CCOc1nc2cccc(C(=O)OC(C)OC(=O)OC3CCCCC3)c2n1Cc1ccc(-c2ccccc2-c2nn[nH]n2)cc1 (stereo not drawn) [candesartan, Candesartan cilexetil]",No-observed-adverse-effect level,dogs,20 mg/kg
same,No-observed-adverse-effect level,rats [6]; 6 months,10 mg/kg
same,Blood pressure,[9],reduced blood pressure
same,Plasma renin concentration,[9],increased the plasma renin concentration in a dose-dependent manner
same,EF compared with control group,[10],no longer significant in Week 30 and Week 36
same,FS% compared with control group,[10],no longer significant in Week 36
same,Survival rate,[10],rapid decrease in the survival rate was observed from 29 weeks
